The experiment deals with internal mitochondrial proteases. The experiment can be described thus: MALDI-TOF-TOF sequence confirmation of MTS cleavage. As to conditions: for Peptide detected: RFP sequence (1-9) VSKGEELIK, position 1-9; for cleavage of the MTS: enriched sample, gel piece, trypsin digestion. Further details: species or system Kluyveromyces lactis. As for the experimental part:
The enriched sample was analysed on a 15% SDS-PAGE gel and stained with Coomassie blue. After de-staining the gel a piece of the SDS-PAGE gel was cut at the position where the RFP was expected. This was washed extensively in water and analysed by MALDI-TOF-TOF analysis after trypsin digestion. […]

With “MIS-VII: synthetic mitochondrial targeting sequence (MTS), SEQ ID NO: 2, containing the core RRRA (RLRRRAARSLARSAARR)”, the Peptide detected result is “VSKGEELIK” and the “cleavage of the MTS” value is on record as “cleavage was correct”.
Regarding “MIS-XIV: synthetic mitochondrial targeting sequence (MTS), SEQ ID NO: 4, containing the core RRRA (RARRRARR)”, the Peptide detected result is given as “VSKGEELIK” and the “cleavage of the MTS” value was “cleavage was correct”.
With “MIS-XIII: synthetic mitochondrial targeting sequence (MTS), SEQ ID NO: 3, containing the core RRRA (RAARRRAARR)”, the Peptide detected result is recorded as “VSKGEELIK” and the “cleavage of the MTS” value is reported as “cleavage was correct”.
